Laboratory results from ChEMBL document CHEMBL3228010, “Potential antitumor agents. 29. Quantitative structure-activity relationships for the antileukemic bisquaternary ammonium heterocycles” (J Med Chem, 1979).

Columns and labels:
Bos taurus = species: Bos taurus; assay: Displacement of ethidium from calf thymus DNA by fluorimetric method
[1] = Displacement of ethidium from poly[d(G-C)]-poly[d(G-C)] DNA (unknown origin) by fluorimetric method
[2] = Lipophilic-hydrophilic balance, Rm of the compound by partition chromatography; type: physicochemical
[3] = Displacement of ethidium from poly[d(A)]-poly[d(T)] DNA (unknown origin) by fluorimetric method
L1210 [4] = assay: Antitumor activity against mouse L1210 cells […] in ip dosed C3H X DBA2 F1 hybrid mouse on day 0 and dosed once daily on days 1 to 5 assessed as increase in life span relative to control; type: functional
L1210 [5] = assay: Antitumor activity against mouse L1210 cells […] in ip dosed C3H X DBA2 F1 hybrid mouse on day 0 and dosed at LD10 level once daily on days 1 to 5 assessed as increase in life span relative to control; type: functional
[6] = Displacement of ethidium from poly[d(A-T)]-poly[d(A-T)] DNA by fluorimetric method
Mus musculus = assay: Toxicity in ip dosed C3H X DBA2 F1 hybrid mouse […] with mouse L1210 cells on day 0 and dosed once daily on days 1 to 5 measured after 50 days; type: organism-based; conditions: in vivo, 1200 h

Row | Compound | C50 (Bos taurus) | C50 [1] | Rm [2] | C50 [3] | D40 (L1210 [4]) | log(ILSmax) (L1210 [5]) | C50 [6] | LD10 (Mus musculus)
1 | C[n+]1cccc(NC(=O)c2ccc(NC(=O)C34CCC(C(=O)Nc5ccc(C(=O)Nc6ccc[n+](C)c6)cc5)(CC3)CC4)cc2)c1.Cc1ccc(S(=O)(=O)[O-])cc1.Cc1ccc(S(=O)(=O)[O-])cc1 | 6.8 µM | 11 µM | 0.31 | 1.6 µM | 4.3 mg/kg | 2 | 5.3 µM | 24 mg/kg
2 | C[n+]1ccc(Nc2ccc(NC(=O)c3ccc(Nc4cc[n+](C)c5ccccc45)cc3N)cc2N)cc1.[I-].[I-] | 1.76 µM | 3.17 µM | 0.08 | 0.12 µM | 15 mg/kg | 1.78 | 0.79 µM | 18 mg/kg
3 | COc1cc(NC(=O)c2ccc(C(=O)Nc3ccc(C(=O)Nc4ccc[n+](C)c4)c(OC)c3)cc2)ccc1C(=O)Nc1ccc[n+](C)c1.Cc1ccc(S(=O)(=O)[O-])cc1.Cc1ccc(S(=O)(=O)[O-])cc1 | 0.4 µM | 0.35 µM | 0.15 | 0.18 µM | 15 mg/kg | 1.78 | 0.3 µM | 41 mg/kg
4 | C[n+]1ccc(Nc2ccc(NC(=O)c3ccc(C(=O)Nc4ccc(Nc5cc[n+](C)cc5)cc4)cc3)cc2)cc1.Cc1ccc(S(=O)(=O)[O-])cc1.Cc1ccc(S(=O)(=O)[O-])cc1 | 1.3 µM | 1.8 µM | 0.07 | 0.043 µM | 0.3 mg/kg | 2.33 | 0.14 µM | 3.1 mg/kg
